Literature values, collected in patent US8921361B2, “Triazine, pyrimidine and pyridine analogs and their use as therapeutic agents and diagnostic probes” (University of Basel, priority 2008, dated 2014).

Test system: human cancer xenografts

Structure (SMILES): FC(F)c1nc2ccccc2n1-c1nc(N2CCOCC2)nc(N2CCOCC2)n1 [ZSTK474]
- toxicity in xenograft mice (mouse, in vivo, po): without evidence of critical toxicity
- antitumor activity against human cancer xenografts in mice (orally administered, Yaguchi et al. 2006): potent antitumor activity
